Source: PMC5213423, “Identification of a Drug Targeting an Intrinsically Disordered Protein Involved in Pancreatic Adenocarcinoma” (Scientific Reports, 2017)
Structures can show the parent of a compound that is named as a salt. Where two headings read alike, the source gives them in different places.

Key:
NUPR1 [1] = molecular target: T1, NUPR1 (Homo sapiens, UniProt O60356); assay: Isothermal titration calorimetry (ITC) of compound binding to NUPR1; conditions: 25 °C; for Kd: 20 mM sodium phosphate pH 7, relative error is 20%
T1 construct: made in house; host or cells: E. coli
T1 sequence (O60356 1-82): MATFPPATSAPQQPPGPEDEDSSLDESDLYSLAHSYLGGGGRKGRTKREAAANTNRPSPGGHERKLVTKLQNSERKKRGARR
Experimental: Ligand binding to NUPR1 was determined with a high sensitivity isothermal titration calorimeter Auto-iTC200 (MicroCal–Malvern Instruments, Malvern UK). Protein samples and reference solutions were properly degassed and carefully loaded into the calorimetric cells to avoid bubble formation during stirring. Experiments were performed with freshly prepared buffer-exchanged protein solutions, at 25 °C in 20 mM sodium phosphate pH 7. NUPR1 20 μM solution in the calorimetric cell was titrated with 300–400 μM compound solution. A sequence of 19 injections of 2 μL volume was programmed with a stirring speed of 1000 rpm. The heat evolved after each ligand injection was obtained from the integral of the calorimetric signal. The heat due to the binding reaction was obtained as the difference between the reaction heat and the corresponding heat of dilution, the latter estimated as a constant value throughout the experiment, and included as an adjustable parameter in the analysis. Control experiments (compound injected into buffer) were performed under the same experimental conditions. The association constant (Ka) and the enthalpy change (ΔH) of the binding reaction were obtained through non-linear regression of experimental data to a model for a protein with a single ligand binding site. Experiments were performed in replicates and data were analyzed using in-house developed software implemented in Origin 7 (OriginLab, Northampton, MA).

NUPR1 [2] = molecular target: T1, NUPR1; assay: 2D 1H-15N HSQC NMR cross-peak broadening of NUPR1 upon compound addition; type: binding; conditions: NUPR1 100 μM : compound 400 μM, 25 °C, pH 4.5
Experimental: The NMR data were acquired at 25 °C, pH 4.5 (acetate buffer), on a Bruker Avance DRX-500 spectrometer equipped with a triple-resonance probe and z-gradients. All spectra were referenced to external TSP.
The 2D ^1H-^15N heteronuclear single-quantum coherence (HSQC) spectra[42] were acquired in the phase sensitive mode for isolated ^15N-labelled NUPR1 (100 μM) or ^15N-labelled NUPR1 (100 μM) in the presence of the corresponding compound (400 μM). […] Frequency discrimination in the indirect dimensions was achieved by using the echo/antiecho-TPPI method. […] The carrier of the ^1H dimension was set at 8.00 ppm, and that of ^15N at 120 ppm. The spectral widths used were 10 and 35 ppm in the ^1H and ^15N dimensions, respectively. Water signal was suppressed with the WATERGATE sequence. Data were zero-filled to double the number of original points in both dimensions, apodized with shifted squared sine-bell functions in the two dimensions and Fourier transformed with the program TopSpin 1.2. Assignments were taken from those previously reported. The intensity of the signals from each row in the HSQC spectra was measured by using TopSpin 2.1 taking into account, as an internal reference, the intensity of the last residue of NUPR1. Only differences in intensity of a particular residue between spectra of the complex (NUPR1:Compound) and that of isolated NUPR1 larger than 10%, were considered significant.

MiaPaCa-2 cells [3] = assay: Colony formation in soft agar (clonogenicity); type: cell-based, human; conditions: 10 μM compound
Experimental: Colony formation assay was performed in order to measure the in vitro survival ability of a single cell to grow into a colony in an anchorage-independent growth environment. Briefly, after treating MiaPaCa-2 cells with either the compounds or DMSO (as control) for 24 and 48 h, they were seeded in DMEM complete media at a density of 7 × 10^3 cells in 6-well plates containing a top layer of 0.7% agar and a bottom layer of 1% agar. Plates were incubated at 37 °C for 3 to 4 weeks and then stained with 0.2% crystal violet. […] Comparisons of treatment outcome were tested for statistical significance by using the t-test.

NUPR1/MSL1 interaction = molecular target: T2, NUPR1/MSL1 interaction (Homo sapiens, UniProt O60356); assay: Proximity ligation assay (PLA) of NUPR1-MSL1 interaction after Oxaliplatin-induced DNA damage; type: cell-based; conditions: 1 to 20 μM compound, Oxaliplatin 10 μM, 24 h
T2 construct: expressed in transfected cells; host or cells: MiaPaCa-2 (human pancreatic cancer cells)
T2 sequence (O60356 1-82): T1 sequence (O60356 1-82)
Experimental: MiaPaCa-2 cells were seeded on coverslips and transfected with 300 ng of DNA (NUPR1-Flag and MSL1-V5) using Fugene HDTM transfection reagent (Roche, Meylan, France). […] Cells were washed twice in PBS, fixed, permeabilized and saturated for 45 min before immunostaining with DuoLink kit (Olink Bioscience, Uppsala, Sweden) following the manufacturer’s protocol. Image acquisition was carried out on a Nikon Eclipse 90i fluorescence microscope (Nikon Instruments, Amsterdam, Netherlands). Images at 40x magnification were analyzed with ImageJ to count the number of red dots which represent NUPR1/MSL1 binding. The reduction in the number of red fluorescent dots is proportional to the inhibition of MSL1-NUPR1 interaction by Compound-15.

[4] = tested on: primary murine PDAC cell line WT; assay: Cell viability assay, primary murine PDAC cells, NUPR1 wild-type (WT); type: cell-based, mouse; conditions: 6 days
Experimental: (§1) MiaPaCa-2 cells were obtained from ATCC (Manassas, VA) and maintained in Dulbecco’s Modified Eagle’s Medium (DMEM) (Invitrogen, Carlsbad, CA) supplemented with 10% FBS (Foetal Bovine Serum) at 37 °C with 5% CO2. MiaPaCa-2 cells were authenticated using Short Tandem Repeat analysis (LGC Standards GmbH, Wesel, Germany). […]in reagent (Polyplus-transfection, Illkirch, France) was used to perform siRNA transfections according to the manufacturer’s protocol. Scrambled siRNA targeting no known gene sequence was used as negative control. The sequence of NUPR1-specific siRNA-nupr1 r([…])dTdT was previously reported. Knock-out cells were established in the laboratory from a mice model of pancreatic cancer, known as Pdx1-Cre-Kras^G12D/INK4^flox/flox and for those nupr1 was deleted. These cells have been supplied with DMEM (4.5 g/L) and Glutamax (Life Technologies, Carlsbad, CA), supplemented with 10% of FBS.

[5] = tested on: primary murine PDAC cell line NUPR1 KO; assay: Cell viability assay, primary murine PDAC cells, NUPR1 knocked-out (KO); type: cell-based, mouse; conditions: 6 days
Experimental: as §1

MiaPaCa-2 cells [6] = assay: Real-time iCELLigence impedance proliferation assay; type: cell-based, human; conditions: 10 μM Compound-15 vs 60 nM Gemcitabine, 4 μM Oxaliplatin
Experimental: Cell proliferation was monitored in real-time using the […] system E-Plate (ACEA Biosciences, San Diego, CA). Forty thousand MiaPaCa-2 cells were seeded in each well with fresh DMEM. […] Cells were incubated for another 3 days. The impedance value of each well was automatically monitored by the […] system for 3 days and expressed as a CI (cell index) value.

MiaPaCa-2 cells [7] = assay: Wound healing (cell migration) assay; type: cell-based, human; conditions: 10 μM, after 48 h
Experimental: Cells (10000 cells/well) were seeded in 24-well plates and grown to confluence. […] Either fresh medium with 10 μM of the corresponding compound were added or DMSO (as control). Cell migration to the wounded region was observed using an automated fluorescence inverted microscope Leica DMI 6000B with MetaMorph MM AF analysis software (Leica Microsystems, Wetzlar, Germany). Images were captured at 0, 24 and 48 h to monitor the wound healing process. The wound areas were measured using ImageJ software (NIH, Bethesda, MD). Comparisons of treatment outcome were tested for statistical significance by using the t-test. Statistical significance was assumed at a p-value lower than 0.05.

[8] = tested on: human PDAC-derived xenografts (MiaPaCa-2); assay: Subcutaneous MiaPaCa-2 xenograft in NMRI-Nude mice; type: in vivo; conditions: for Tumor volume: start 400 mm^3
Experimental: NMRI-Foxn1^nu/Foxn1^nu mice were provided by Janvier Laboratories (Le Genest-Saint-Isle, France). Mice were kept within the Experimental Animal House of the Centre de Cancérologie de Marseille (CRCM) pôle Luminy. All experimental protocols were carried out in accordance with nationally approved guidelines for the treatment of laboratory animals. All experimental procedures on animals were approved by the Comité d’éthique de Marseille numéro 14. Ten millions MiaPaCa-2 cells were inoculated subcutaneously and mice were separated into 3 groups of 6 subjects each. Mice were treated daily with either physiologic serum, 5 mg/kg or 10 mg/kg of the compound when the tumor volume reached approximately 400 mm^3. Every 5 days, the weight and the tumors volumes were measured. Mice were sacrificed after 35 days of treatment.

MiaPaCa-2 cells [9] = assay: Cell viability assay (CellTiter-Blue), MiaPaCa-2
Experimental: (§2) Cells (10000 cells/well) were plated in 96-well plates with DMEM. Twenty-four hours later, the media were supplemented with 10 μM of Compound and were incubated for another additional six days. Each experiment was performed in duplicate and repeated at least three times. Cell viability was estimated after addition of the CellTiter-Blue viability reagent (Promega, Madrid, Spain) for 1 h according to the protocol provided by the supplier. Cell viability was measured on day 6 and normalized regarding untreated cells rates. Statistical significance was assumed at a p-value lower than 0.05.

MiaPaCa-2 cells [10] = assay: Chemograms of Gemcitabine or Oxaliplatin with or without Compound-15
Experimental: as §2

In the case of `C[C@H](N)[C@H](O)c1ccc(O)c(O)c1` [Compound-8, Levonordefrin], the Kd (NUPR1 [1]) is reported as 1.5 µM and the “Residues of NUPR1 with NMR-cross-peak broadening affected by binding” value (“Residues of NUPR1” below) (NUPR1 [2]) is reported as “Ala33; Thr68”.
For `OCCN1CCN(CCCN2c3ccccc3Sc3ccc(C(F)(F)F)cc32)CC1` [Compound-2, Fluphenazine dihydrochloride], the Kd (NUPR1 [1]) was 2 µM and the “Residues of NUPR1” value (NUPR1 [2]) was “Thr68”.
For `O=C(O)/C=C/c1ccc(O)c(O)c1` [compound 3, Caffeic acid], the Kd (NUPR1 [1]) was 2 µM and the “Residues of NUPR1” value (NUPR1 [2]) was “Ala33; Thr68”.
`CC(C)NCC(O)c1ccc(O)c(O)c1.O=C(O)C(O)C(O)C(=O)O` (single isomer, unassigned; (+)) [Compound-9, (+)-Isoproterenol (+)-bitartrate salt] was tested, and the Kd (NUPR1 [1]) was 4 µM and the “Residues of NUPR1” value (NUPR1 [2]) was “Ser9; Ala10; Leu29; Ala33; Gly38; Thr68”.
With `Fc1ccc(C(c2ccc(F)cc2)N2CCN(C/C=C/c3ccccc3)CC2)cc1` [Compound-6, Flunarizine dihydrochloride] the Kd (NUPR1 [1]) was 3.1 µM and the “Residues of NUPR1” value (NUPR1 [2]) was “Ala33; Thr68”.
Work on `CC(C)(C)c1ccc(C(O)CCCN2CCC(C(O)(c3ccccc3)c3ccccc3)CC2)cc1` (stereo not shown) [Compound-1, Terfenadine] yielded a Kd (NUPR1 [1]) of 5 µM.
With `CC(C)NCC(O)c1ccc(O)c(O)c1.Cl` (single isomer, unassigned; (-)) [compound 5, (-)-Isoproterenol hydrochloride] the Kd (NUPR1 [1]) was 3.9 µM and the “Residues of NUPR1” value (NUPR1 [2]) was “Thr68”.
With `CN1CCN(CCCN2c3ccccc3Sc3ccc(C(F)(F)F)cc32)CC1` [Compound-15, Trifluoperazine dihydrochloride] the Kd (NUPR1 [1]) was 5.2 µM, the “ΔG (Gibbs energy of binding)” value (NUPR1 [1]; pH 7) was -7.2 kcal/mol and the ΔH of binding (NUPR1 [1]; pH 7) was -1.1 kcal/mol. For the same molecule, the “−TΔS of binding” value (NUPR1 [1]; pH 7) was -6.1 kcal/mol, the “Residues of NUPR1” value (NUPR1 [2]) was “Ala33; Thr68” and the Colony formation (MiaPaCa-2 cells [3]) was “completely inhibited colony formation”. For the same molecule, the “NUPR1 and MSL1 interaction (PLA red dots)” value (NUPR1/MSL1 interaction) was “interfered in the NUPR1-MSL1 interaction”, the viability at 10 µM ([4]; Mus musculus, 144 h, WT murine cells) was 35% and the NUPR1-dependent effect ([4]; difference WT vs KO viability, 10 μM) was “around 37%”. The viability at 10 µM ([5]; Mus musculus, 144 h, NUPR1 KO murine cells) was 72%, the NUPR1-independent killing effect ([5]; from KO cell viability, 10 μM) was roughly 28% and the “Growth arrest in real-time proliferation compared with Oxaliplatin or Gemcitabine” value (MiaPaCa-2 cells [6]) was “stronger growth-arrest”. The “Distance migrated compared to Compound-free cells” value (MiaPaCa-2 cells [7]) was 25%, the “Tumor volume increase compared to the control” value ([8]; 5 mg/kg daily, two weeks) was 50% and the Tumor volume ([8]; 5 mg/kg daily, two weeks) was 767 ± 196 mm^3. The Tumor volume ([8]; 10 mg/kg daily, two weeks) was 558 ± 152 mm^3, the Tumor growth ([8]; 10 mg/kg daily, up to 4 weeks) was “rapidly, and almost completely, stopped” and the viability at 10 µM (MiaPaCa-2 cells [9]; Homo sapiens, MIA PaCa-2, 144 h, read-out: Cell viability) was 26 ± 7%.
In the case of `O=C1[O][Pt]2([NH][C@@H]3CCCC[C@H]3[NH]2)[O]C1=O` [Oxaliplatin], the Cell viability (MiaPaCa-2 cells [9]; MiaPaCa-2, 10 μM of each compound, 6 days, normalized to untreated cells) is reported as 10 ± 2%, the Cell viability (MiaPaCa-2 cells [10]; 4 μM Oxaliplatin alone) is reported as 53 ± 0.4% and the IC50 (MiaPaCa-2 cells [10]; drug alone, MiaPaCa-2, 3 days) is reported as 4 µM.
In the case of `COC(=O)[C@H]1[C@H]2C[C@@H]3c4[nH]c5cc(OC)ccc5c4CCN3C[C@H]2C[C@@H](OC(=O)c2cc(OC)c(OC)c(OC)c2)[C@@H]1OC` [compound 4, Reserpine], the Kd (NUPR1 [1]) is reported as 3.2 µM and the “Residues of NUPR1” value (NUPR1 [2]) is reported as “Thr68”.
In the case of `CC(C)(C)CC(C)(C)c1ccc(OCCOCC[N+](C)(C)Cc2ccccc2)cc1` [Compound-13, Benzethonium chloride], the Colony formation (MiaPaCa-2 cells [3]) is reported as “completely inhibited colony formation”.
For `CN(C)[C@@H]1C(O)=C(C(N)=O)C(=O)[C@@]2(O)C(O)=C3C(=O)c4c(O)ccc(Cl)c4[C@@](C)(O)[C@H]3C[C@@H]12` [compound 14, Chlortetracycline hydrochloride], the Kd (NUPR1 [1]) was 1.5 µM and the “Residues of NUPR1” value (NUPR1 [2]) was “Ala33; Thr68”.
`CN(C)CCC(c1ccccc1)c1ccccn1` (stereo not shown) [compound 10, Pheniramine maleate] was tested, and the Kd (NUPR1 [1]) was 4.3 µM and the “Residues of NUPR1” value (NUPR1 [2]) was “Ser9; His62; Thr68”.
With `CCCCN(CCCC)CCC(O)c1cc2c(Cl)cc(Cl)cc2c2cc(C(F)(F)F)ccc12` (stereo not shown) [Compound-7, Halofantrine hydrochloride] the Kd (NUPR1 [1]) was 3.3 µM and the “Residues of NUPR1” value (NUPR1 [2]) was “Thr68”.
Work on `Nc1ccn([C@@H]2O[C@H](CO)[C@@H](O)C2(F)F)c(=O)n1` [Gemcitabine] yielded an IC50 (MiaPaCa-2 cells [10]; Homo sapiens, MIA PaCa-2, 72 h, read-out: IC50 (concentration reducing cell viability to one half)) of 0.06 µM and a viability at 0.06 µM (MiaPaCa-2 cells [10]; Homo sapiens, MIA PaCa-2, read-out: Cell viability) of 41 ± 0.4%.
In the case of `CC(C)N1CCN(c2ccc(OCC3COC(Cn4cncn4)(c4ccc(Cl)cc4Cl)O3)cc2)CC1` (stereo not shown) [Compound-11, Terconazole], the “Residues of NUPR1” value (NUPR1 [2]) is reported as “Thr68”.
